Data as given in US10393730B2, “Energy malnutrition evaluation for liver disease test subject” (OTSUKA PHARMACEUTICAL CO., LTD., priority 2014, dated 2019).

Experiments:
[1] = non-fasting period and fasting period, control group versus liver cirrhosis model group, 2 mL/kg i.v., 0-120 minutes
Method: CCl4 (olive oil: CCl4=1:1) was administered subcutaneously to the dorsal regions of male SD rats (10 weeks of age: n=3) in an amount of 2 mL/kg twice a week for 12 weeks, thereby creating liver cirrhosis model rats. With a biogas analysis device (product name: Oxymax, Columbus Instruments), respiratory quotient and energy consumption of untreated rats (control group) and liver cirrhosis model rats (liver cirrhosis model group) were measured and calculated according to the instructions of the device.
Further, both the untreated rats and the liver cirrhosis model rats were fed from 19:00 on Day 1 of the test to 13:00 on Day 3, and were fasted from 13:00 on Day 3 to 13:00 on Day 4, as shown in FIG. 1 shown later. During the non-fasting period, the rats were allowed free access to feed (product name: CRF-1, Oriental Yeast Co., Ltd.). […]
The above-prepared ^13C-palmitic acid-containing composition was individually intravenously administered to the liver cirrhosis model rats and untreated rats prepared in the above Reference Example in an amount of 2 mL/kg (n=3). […] Expired air was collected at time points between before administration (0 minutes) to 120 minutes after the administration of ^13C-palmitic acid-containing composition. Δ^13C(‰) was measured and determined using an expired air analysis mass spectrometer (ABCA: product of Sercon).

[2] = set-up: species or system male SD rats (liver cirrhosis model rats and untreated rats); settings: rat, in vivo, iv
Method: U-^13C-glucose (MW: 186, Cambridge Isotope Laboratories, Inc.) was dissolved in a physiological saline solution at a concentration of 50 μmol/ml, thereby preparing a ^13C-glucose-containing composition.

Compound	expired air reaction (Δ^13C(‰)) [1]	expired air reaction (Δ^13C(‰)), day versus night [2]
CCCCCCCCCCCCCCC[13C](=O)[O-].[Na+] [1-^13C-sodium palmitate]	showed similar transitions in the control group and the liver cirrhosis model group	
OC[C@H]1OC(O)[C@H](O)[C@@H](O)[C@@H]1O (some centres unmarked) [^13C-glucose-containing composition, U-^13C-glucose]		a significant difference in the expired air reaction (Δ^13C(‰)) was not observed between day and night
